Reference: the NIST ThermoML archive (doi:10.1016/j.fluid.2012.01.031)
Numbers after ± are expanded uncertainties.

Details: Crystal; DTA

Structure (SMILES) | Normal melting temperature
c1ccc2c(c1)oc1ccccc12 [dibenzo[bd]furan] | 82.51 ± 0.41 °C
c1ccc2c(c1)Cc1ccccc1-2 [fluorene] | 114.38 ± 0.41 °C
